The values below come from ChEMBL document CHEMBL1201862, “PubChem BioAssay data set” (2004).

SMILES strings stand for the structures. Activity calls are given as the source filed them. Bounds are passed on as bounds.

Data set [1] can be described thus: NIH3T3 cell viability loss – ATP luminescence, mouse fibroblasts, counter-screen, dose response (AID 2010).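 Note: cells exposed to compound for about 90 hours before reading.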 It counts as functional, cell-based.
Data set [2] is described as follows: Trypanosoma cruzi growth suppression in host cells – NIH3T3 host cells, beta-gal luminescence, confirmation (AID 2044).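 Note: intracellular parasites grown in NIH/3T3 mouse fibroblasts as host cells; luminescent beta-galactosidase reporter signal from transgenic T. cruzi replicating inside host cells; inhibitors lower the luminescence signal.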 It counts as functional, cell-based.
The target of another data set is Cytochrome P450 2C9 (Homo sapiens, UniProt P11712).
For the next data set, the target named is Cytochrome P450 3A4 (Homo sapiens, UniProt P08684).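 Note: CYP3A4 tested as one member of a cytochrome P450 panel screen.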
Another data set concerns the target Cytochrome P450 2C19 (Homo sapiens, UniProt P33261). Nature of the data set: Cytochrome panel assay with activity outcomes. Panel member name: p450-cyp2c19 Compounds with AC50 equal or less than 10 uM are considered active. It counts as functional.
The target of another data set is Cytochrome P450 2D6 (Homo sapiens, UniProt P10635).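 Note: CYP2D6 member of a cytochrome P450 panel assay.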
The test system of another data set is Streptococcus. Nature of the data set: GAS UMAA2166 growth inhibition – luminescence, BacTiterGlo, counter-screen for streptokinase expression inhibitor project, dose response (AID 1915).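 Note: potency for reduction of bacterial viability or growth.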 In kind it is functional, organism-based.
Data set [3] has as its system Streptococcus sp. 'group A'. Nature of the data set: Streptococcus pyogenes SK(-)GAS viability under kanamycin – luminescence, BacTiterGlo, confirmation, counter-screen for streptokinase expression inhibitor project, dose response (AID 1900). It counts as functional, organism-based.

Cytochrome P450 2D6, sequence (P10635 whole entry): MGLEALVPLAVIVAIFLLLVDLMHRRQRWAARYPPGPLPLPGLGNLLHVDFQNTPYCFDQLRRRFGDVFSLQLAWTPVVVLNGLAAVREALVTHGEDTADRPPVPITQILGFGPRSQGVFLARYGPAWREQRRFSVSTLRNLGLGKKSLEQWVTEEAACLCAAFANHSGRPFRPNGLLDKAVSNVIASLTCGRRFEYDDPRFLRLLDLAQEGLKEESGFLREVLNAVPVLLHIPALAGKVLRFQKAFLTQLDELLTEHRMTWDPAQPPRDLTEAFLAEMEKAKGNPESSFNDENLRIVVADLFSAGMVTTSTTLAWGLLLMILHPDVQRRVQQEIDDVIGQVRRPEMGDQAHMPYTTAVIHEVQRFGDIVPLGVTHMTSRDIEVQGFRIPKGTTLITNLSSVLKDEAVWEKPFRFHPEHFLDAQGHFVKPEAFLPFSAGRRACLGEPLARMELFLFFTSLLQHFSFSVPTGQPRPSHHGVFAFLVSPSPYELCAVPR
Cytochrome P450 2C19, sequence (P33261 whole entry): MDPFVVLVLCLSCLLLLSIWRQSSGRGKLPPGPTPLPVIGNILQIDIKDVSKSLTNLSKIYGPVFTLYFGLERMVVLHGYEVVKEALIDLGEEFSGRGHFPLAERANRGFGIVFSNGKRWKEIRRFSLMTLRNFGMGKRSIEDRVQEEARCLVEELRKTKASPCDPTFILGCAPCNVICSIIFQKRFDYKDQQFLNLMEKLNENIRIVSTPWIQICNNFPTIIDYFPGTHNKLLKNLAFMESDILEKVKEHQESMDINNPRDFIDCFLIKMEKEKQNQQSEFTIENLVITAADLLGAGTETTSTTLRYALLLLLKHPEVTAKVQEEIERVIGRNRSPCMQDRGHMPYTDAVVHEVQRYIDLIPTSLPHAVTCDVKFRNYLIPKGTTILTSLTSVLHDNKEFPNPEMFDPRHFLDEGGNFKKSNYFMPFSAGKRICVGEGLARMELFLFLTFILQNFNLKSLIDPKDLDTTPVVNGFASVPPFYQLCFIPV
Cytochrome P450 2C9, sequence (P11712 whole entry): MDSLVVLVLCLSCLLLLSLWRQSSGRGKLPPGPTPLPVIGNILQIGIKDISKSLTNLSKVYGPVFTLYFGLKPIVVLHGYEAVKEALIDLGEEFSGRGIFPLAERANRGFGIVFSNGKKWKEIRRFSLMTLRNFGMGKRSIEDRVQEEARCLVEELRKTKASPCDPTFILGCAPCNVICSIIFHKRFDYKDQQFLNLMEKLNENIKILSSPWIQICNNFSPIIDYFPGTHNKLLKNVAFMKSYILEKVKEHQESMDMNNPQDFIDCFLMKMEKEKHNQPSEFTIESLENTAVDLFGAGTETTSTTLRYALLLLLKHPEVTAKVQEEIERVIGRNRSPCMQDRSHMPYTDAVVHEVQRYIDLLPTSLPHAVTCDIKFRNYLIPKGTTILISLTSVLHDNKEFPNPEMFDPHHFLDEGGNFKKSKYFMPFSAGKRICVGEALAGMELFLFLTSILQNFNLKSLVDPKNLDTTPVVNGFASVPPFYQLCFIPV
Cytochrome P450 3A4, sequence (P08684 whole entry): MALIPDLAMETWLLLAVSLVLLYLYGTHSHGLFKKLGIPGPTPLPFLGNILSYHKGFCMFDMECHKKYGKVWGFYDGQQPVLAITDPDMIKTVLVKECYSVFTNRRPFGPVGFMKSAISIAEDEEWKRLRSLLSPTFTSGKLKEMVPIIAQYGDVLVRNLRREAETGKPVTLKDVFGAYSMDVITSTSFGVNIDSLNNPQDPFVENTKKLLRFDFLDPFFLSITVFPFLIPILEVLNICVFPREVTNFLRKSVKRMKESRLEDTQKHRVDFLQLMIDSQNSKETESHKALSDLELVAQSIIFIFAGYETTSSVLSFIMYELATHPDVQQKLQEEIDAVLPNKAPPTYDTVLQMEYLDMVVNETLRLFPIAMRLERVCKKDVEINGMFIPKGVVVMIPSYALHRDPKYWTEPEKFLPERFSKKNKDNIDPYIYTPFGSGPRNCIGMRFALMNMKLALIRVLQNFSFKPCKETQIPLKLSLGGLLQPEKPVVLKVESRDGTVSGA

As for `CCCCCOc1ccc(Cn2ccnc2)cc1[N+](=O)[O-]`, the values for the EC50 in data set [1] and in data set [2] were > 60 µM (not active) and 2.21 µM (active), respectively.

On to `COc1cccc(CN(C)CC2CCCN(CCc3ccccc3C)C2)c1` (centres undefined), for which the results for the EC50 in data set [1] and in data set [2] were 24.6 µM (active) and 0.184 µM (active), respectively. In the case of `CCCc1nn2c(O)c(C(c3ccc(C)cc3)c3c(O)n4nc(CCC)sc4nc3=O)c(=O)nc2s1`, the AC50 on Cytochrome P450 2C9 is 12.6 µM (inconclusive). On to `Cc1cc(-c2cc(C)c(O)c(C(C)(C)C)c2)cc(C(C)(C)C)c1O`, for which the AC50 at Cytochrome P450 2C9 is 5.01 µM (inconclusive). On to `O=C(Nc1cc(Sc2ccccn2)cc([N+](=O)[O-])c1)c1ccc([N+](=O)[O-])cc1`, for which the AC50 was 7.94 µM (inconclusive) on Cytochrome P450 3A4, 10 µM (inconclusive) on Cytochrome P450 2C9 and 5.01 µM (inconclusive) on Cytochrome P450 2C19 (read-out: AC50).

Consider `COc1ccc(-c2nnn(CC(=O)NCCc3c[nH]c4ccccc34)n2)cc1OC`, for which the half-maximal activity concentration (AC50) on Cytochrome P450 2D6 is 0.0126 µM (inconclusive). Regarding `COc1ccc(NC(=O)COC(=O)c2c3c(nc4ccccc24)CCCC3)cc1`, at Cytochrome P450 3A4, the AC50 was 0.891 µM (inconclusive). Turning to `COc1ccc(C2CC(c3ccc(C)cc3)Nc3nc(N)nn32)cc1` (centres undefined), the values for the EC50 in data set [1] and in data set [2] were > 60 µM (not active) and 7.21 µM (active), respectively. Turning to `COc1ccc(/C=N/NC(N)=S)cc1OC(=O)c1cccc2ccccc12`, the concentration at half-maximal activity (AC50) at Cytochrome P450 2C9 was 6.31 µM (inconclusive). As to `N#CCCn1c(=O)c(-c2ccccc2)nc2cnc(OCc3ccccc3)nc21`, the AC50 at Cytochrome P450 3A4 is 7.94 µM (inconclusive); on Cytochrome P450 2C19 (read-out: AC50) it was 39.8 µM (inconclusive). Take `CCN(CC)S(=O)(=O)c1ccc(C)c(NC(=O)Cn2cnc3cc([N+](=O)[O-])ccc3c2=O)c1`: the EC50 in data set [1] is > 60 µM (not active); in data set [2] it was 0.406 µM (active).

Take `CC(NCC(O)COC1CCC(C(C)(C)C)CC1)c1ccccc1` (centres undefined): the EC50 was > 60 µM (not active) in data set [1] and 0.114 µM (active) in data set [2]. Take `CC(C(=O)NC1C(=O)N2C(C(=O)O)=C(CSc3nnnn3C)CSC12)n1cc(Br)cn1` (centres undefined): the EC50 in the data set on Streptococcus was 0.125 µM (active); in data set [3], 0.101 µM (active). For the compound `COc1cc(/C=N/NC(=O)c2nc3ccccn3c2C)cc(OC)c1O`, the EC50 in data set [1] and in data set [2] was > 60 µM (not active) throughout. Turning to `CCCCNC(=O)C1CC(=O)N(c2ccc(OC)cc2)C1c1ccc(OC)cc1` (centres undefined), the AC50 was 15.8 µM (inconclusive) on Cytochrome P450 2D6, 25.1 µM (inconclusive) at Cytochrome P450 2C9 and 25.1 µM (inconclusive) on Cytochrome P450 2C19 (read-out: AC50). On to `CC[C@H](c1ccccc1)c1cc(C(C)(C)C)cc(C(C)(C)C)c1O`, for which the concentration at half-maximal activity (AC50) on Cytochrome P450 3A4 is 5.01 µM (inconclusive); at Cytochrome P450 2C9 it was 7.94 µM (inconclusive). `Cc1cc(Nc2ccc(Cl)cc2)nc(N)n1`: the AC50 at Cytochrome P450 3A4 was 5.62 µM (inconclusive); on Cytochrome P450 2C19 (read-out: AC50), 8.91 µM (inconclusive).

As for `CCOC(=O)Cn1nnc2c(sc3nc4c(c(-c5ccc(Cl)cc5)c32)CCC4)c1=O`, the concentration at half-maximal activity (AC50) at Cytochrome P450 2C19 (read-out: AC50) is 7.08 µM (inconclusive). Same read-out and setting: the same measure for `O=C1C=C(Nc2nc(C(=O)O)cc(=O)[nH]2)c2ccccc2C1=O`: 3.16 µM (inconclusive). Turning to `C/C(CCN1CCCCc2nc(C)c(C)cc21)=N\OC[C@@H](C)[C@H](OCc1ccccc1)C(C)C`, the half-maximal activity concentration (AC50) at Cytochrome P450 3A4 is 3.16 µM (inconclusive). In the case of `Cc1cc(N/N=C/c2ccc(Cl)cc2)nc(NCc2ccccc2)n1`, the EC50 in data set [1] is 11.4 µM (active); in data set [2], 1.82 µM (active). Consider `COc1ccc(C2(C(=O)N3CCOCC3)CCCC2)cc1`, for which the AC50 at Cytochrome P450 3A4 is 12.6 µM (inconclusive). As for `CCCc1ccc(Oc2cc(C)nc(N3CCOCC3)n2)cc1`, the AC50 on Cytochrome P450 2D6 was 14.1 µM (inconclusive). Regarding `CCN(CC)CCNC(=O)Cn1nc(-c2ccc(C)cc2)ccc1=O`, the AC50 on Cytochrome P450 2D6 was 22.4 µM (inconclusive); on Cytochrome P450 2C19, “inconclusive”. With `O=S(=O)(N=C(Nc1ccccn1)c1ccccc1)c1ccc(Cl)cc1`, the AC50 is 1.41 µM (inconclusive) at Cytochrome P450 3A4 and 11.2 µM (inconclusive) at Cytochrome P450 2C9. For `CC(=O)N(NC(=O)c1ccccc1Cl)C1CC(=O)N(c2ccc(C)cc2)C1=O` (centres undefined), the values for the half-maximal activity concentration (AC50) at Cytochrome P450 3A4, on Cytochrome P450 2C9 and at Cytochrome P450 2C19 (read-out: AC50) were 20 µM (inconclusive), 14.1 µM (inconclusive) and 1 µM (inconclusive), respectively.

For `COc1ccc(C(=O)Nc2ccc(S(=O)(=O)N3CCOCC3)cc2)cc1OC`, the AC50 is 0.00794 µM (inconclusive) on Cytochrome P450 2D6, 28.2 µM (inconclusive) at Cytochrome P450 2C9 and 8.91 µM (inconclusive) at Cytochrome P450 2C19 (read-out: AC50).

Consider `COC(=O)[C@@]1(Cc2ccc(OC)cc2)[C@H]2c3cc(C(=O)N4CCCC4)n(C[C@H](O)CO)c3C[C@H]2CN1C(=O)c1ccccc1`, for which the results for the half-maximal activity concentration (AC50) on Cytochrome P450 2C9 and on Cytochrome P450 2C19 (read-out: AC50) were 31.6 µM (inconclusive) and 39.8 µM (inconclusive), respectively. As to `COc1ccccc1N1CCN(C(=O)c2ccc3[nH]c4c(c3c2)CC(C)CC4)CC1` (centres undefined), the figures for the EC50 in data set [1] and in data set [2] were > 60 µM (not active) and 2 µM (active), respectively.

Consider `N#Cc1cccc(-c2nc(N3CCNCC3)c3ccccc3n2)c1`, for which the AC50 on Cytochrome P450 2D6 is 39.8 µM (inconclusive). As for `COc1ccc(C=O)cc1COc1ccc(C)cc1[N+](=O)[O-]`, the AC50 was 14.1 µM (inconclusive) on Cytochrome P450 2D6 and 4.47 µM (inconclusive) at Cytochrome P450 2C9. With `Cc1ccccc1-c1cc(N(C)Cc2ccco2)ncn1`, at Cytochrome P450 2D6, the AC50 was 39.8 µM (inconclusive).

On to `CCCCN1C(=O)NC(=O)/C(=C(/CC)NCCCN(C)C)C1=O`, for which the EC50 in data set [1] was > 60 µM (not active); in data set [2] it was 0.236 µM (active). For the compound `COc1cccc(Cn2c(=O)c(-c3cccc(C#N)c3)nc3cnc(N4CCN(C)CC4)nc32)c1`, the AC50 on Cytochrome P450 3A4 is 25.1 µM (inconclusive). In the case of `CCN(CC)CCN(C(=O)C1=COCCO1)c1nc2ccc(C)cc2s1`, the EC50 in data set [1] is > 60 µM (not active); in data set [2], 0.384 µM (active). For `Cc1ccc(C)c(N2CCN(C(=O)c3ccc(Cn4c(=O)[nH]c5ccccc5c4=O)cc3)CC2)c1` the same measures were > 60 µM (not active) and 0.687 µM (active).

Take `COc1ccc(C(=O)c2c[nH]c(C(=O)NCc3cccs3)c2)cc1`: at Cytochrome P450 2C9, the AC50 was 0.251 µM (inconclusive). `Cc1cc(C(=O)CCl)c(C)n1Cc1ccco1`: the EC50 in data set [1] is 7.2 µM (active); in data set [2], 3.3 µM (active). For `Cn1cccc1C(=O)N1CCC[C@@]2(CCN(Cc3nccs3)C2)C1`, the AC50 on Cytochrome P450 2D6 and on Cytochrome P450 2C9 was 31.6 µM (inconclusive) throughout. On to `O=C(NCCc1ccccc1)C(=O)NN=C1CCCC1`, for which the AC50 on Cytochrome P450 3A4 was 31.6 µM (inconclusive); at Cytochrome P450 2C19 (read-out: AC50), 0.355 µM (inconclusive). As to `CO[C@H]1C=CO[C@@]2(C)Oc3c(C)c(O)c4c(O)c(c5c(c4c3C2=O)=NC2(CCN(CC(C)C)CC2)N=5)NC(=O)C(C)=CC=C[C@H](C)[C@H](O)[C@@H](C)[C@@H](O)[C@@H](C)[C@H](OC(C)=O)[C@@H]1C`, the concentration for a half-maximal effect (EC50) (in the data set on Streptococcus; in data set [3]) was < 0.06 µM (active) each time. Turning to `Cc1nc(-c2ccccn2)nc(N(C)c2ccccc2)c1Cl`, the EC50 in data set [1] was > 60 µM (not active); in data set [2], 3.26 µM (active). For `CNc1nc(-c2ccccc2CN(C)C)nc2ccccc12`, at Cytochrome P450 3A4, the AC50 was 25.1 µM (inconclusive). Consider `CCCCN(Cc1ccccc1)C(=O)c1cnc2n(c1=O)CCS2`, for which the AC50 on Cytochrome P450 2D6 was 31.6 µM (inconclusive); on Cytochrome P450 2C9 it was 8.91 µM (inconclusive).

With `N=c1nc(N)nc(N)n1-c1ccc(S(N)(=O)=O)cc1`, the AC50 at Cytochrome P450 2D6 was 3.98 µM (inconclusive). As to `N=C1/C(=N/Nc2cccc(Cl)c2)C(=O)NN1c1ccccc1`, the AC50 on Cytochrome P450 2C9 is 1.26 µM (inconclusive). With `CO[C@H]1COC(=O)[C@@H](Cc2ccccc2)NC(=O)[C@@H](C)COC(=O)C/C=C\[C@@H]1C`, the AC50 at Cytochrome P450 3A4 was 6.31 µM (inconclusive). As to `COc1cccc(Cn2c(=O)c(C)nc3cnc(N4CCNCC4)nc32)c1`, on Cytochrome P450 2C19 (read-out: AC50), the concentration at half-maximal activity (AC50) was 39.8 µM (inconclusive). With `CC(C(=O)Nc1ccc(F)c(F)c1F)N(C)CC(=O)Nc1ccccc1Br` (centres undefined), the EC50 in data set [1] is > 60 µM (not active); in data set [2], 1.71 µM (active).

Turning to `N#Cc1ccccc1-c1ccc2ncnc(NCc3cccnc3)c2c1`, the AC50 at Cytochrome P450 3A4 is 2 µM (inconclusive).

As to `Cc1cc(-c2cccs2)nc(-n2cccc2)n1`, the AC50 on Cytochrome P450 3A4 is 31.6 µM (inconclusive); on Cytochrome P450 2C19 (read-out: AC50) it was 5.62 µM (inconclusive). With `O=c1c(-c2ccc(F)cc2)nc2cnc(N3CCNCC3)nc2n1Cc1ccc(F)cc1`, the AC50 is 20 µM (inconclusive) at Cytochrome P450 2D6, 31.6 µM (inconclusive) on Cytochrome P450 2C9 and 39.8 µM (inconclusive) on Cytochrome P450 2C19 (read-out: AC50). For `Cc1ccc(S(=O)(=O)N(C)CC(=O)ONC(=N)c2ccccn2)cc1`, the AC50 on Cytochrome P450 3A4 was 22.4 µM (inconclusive); at Cytochrome P450 2C19, “inconclusive”. As for `O=C(Nc1ccccc1)N1CCCC2(CCN(C(=O)c3ccco3)CC2)C1`, the AC50 on Cytochrome P450 3A4 is 15.8 µM (inconclusive); at Cytochrome P450 2C9 it was 25.1 µM (inconclusive).

With `CCC(NC(=O)c1ccc([N+](=O)[O-])cc1[N+](=O)[O-])c1ccccc1` (centres undefined), the EC50 is > 60 µM (not active) in data set [1] and 0.879 µM (active) in data set [2]. With `CC(=O)OCC1=C(C(=O)O)N2C(=O)C(NC(=O)C(C)Cn3nc(C)c(Cl)c3C)C2SC1` (centres undefined), the 50% effective concentration (EC50) with Streptococcus was 5.07 µM (active); in data set [3] it was 3.56 µM (active). With `CCNc1ncc2nc(-c3ccc(Cl)cc3)c(=O)n(Cc3cccs3)c2n1`, the values for the concentration at half-maximal activity (AC50) on Cytochrome P450 2D6 and at Cytochrome P450 2C9 were 25.1 µM (inconclusive) and 31.6 µM (inconclusive), respectively.
